Test results reported in patent publication US10563243B2, “Bioavailability of metal ions” (priority 2014, dated 2020).

What was measured:
[1] = tested on: mixture of Actinomyces viscosus, Lactobacillus casei, Streptococcus oralis, Fusobacterium nucleatum, and Veillnoella parvula; experiment: Zinc/copper bioavailability assay: bacterial viability by resazurin fluorescence, oral bacterial mixture
Description: (This bacterial mixture simulates the complex flora of the oral environment.) Subsequently, the cells were washed and mixed with 5 μg/ml resazurin solution. The fluorescence of the samples was read at 560 nm excitation and at 590 nm emission, and compared to standardized mixtures of viable and non-viable bacteria in order to determine the percentage of the total bacterial population that remained viable after treatment. Each salt was tested at two different concentrations of zinc. The total amount of zinc was consistent between the different salts.
The amount of soluble zinc in each solution was also determined by centrifuging the solutions to remove insoluble zinc, and by testing the supernatant using ICP-AA (inductively coupled plasma with atomic absorption).

[2] = tested on: mixture of Escherichia coli (45%), Staphylococcus aureus (45%) and Serratia marcescens (10%); experiment: Zinc bioavailability assay: bacterial viability by resazurin fluorescence, skin bacterial mixture; format: cell-based; settings: Table 5; 0.4% ZnO, 0.8% Zn Citrate, or mix, in deionized water; Triclosan positive control
Description: The incubation and detection methods used were as described in Example 1. […] Triclosan was used as a positive antimicrobial control for the experiment.

[3] = cited from earlier work
[4] = Table 6, 0.5% elemental copper in deionized water
[5] = Table 7, 0.05% elemental copper in deionized water

Row | Compound | % viable ([1]; Table 2, zinc salt solution without added citrate) | % viable [2] | theoretical solubility in water [3] | % viable [1, 4] | % viable [1, 5]
1 | [O]=[Zn] [ZnO, zinc oxide] | 23.75% | 67.23% |  |  | 
2 | Oc1cc(Cl)ccc1Oc1ccc(Cl)cc1Cl [Triclosan, reference compound] |  | 18.83% |  |  | 
3 | Cu2O |  |  | insoluble |  | 
4 | [O]=[Cu] [CuO] |  |  |  | 42.73% | 78.67%
5 | [F][Cu][F] [CuF2] |  |  |  |  | 17.82%
6 | [Cl][Cu][Cl] [CuCl2] |  |  | 75.7 g/100 ml | 1.89% | 11.99%
7 | O=S(=O)([O-])[O-].[Cu+2] [CuSO4] |  |  | 20 g/100 ml | 5.82% | 13.98%
